Data on one compound can be found in PMC5760531, “Action Potential Recording and Pro-arrhythmia Risk Analysis in Human Ventricular Trabeculae” (Frontiers in Physiology, 2018).

Series [1] relates to human ventricular trabeculae. More on the design: method as in Page et al., 2016. Particulars: 0.1 uM; ref Page et al., 2016; cited from earlier work.
Series [2] relates to human ventricular trabeculae. As to the kind of experiment: Action potential recording and pro-arrhythmic score analysis in human ventricular trabeculae (hVT).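 Also: sharp microelectrode action potential recordings at 37°C in Tyrode-perfused trabeculae, 4 cumulative concentrations each applied 31 min, values averaged over last 30 APs, vehicle 0.1% DMSO as control.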
Setting [3] is: 1Hz, c1-c4: 1.5-, 5-, 15-, 150-FOLD free ETPC (0.002µM).
[4] abbreviates: 2Hz, c1-c4: 1.5-, 5-, 15-, 150-FOLD free ETPC (0.002µM).
[5] abbreviates: average raw data, 1Hz, c2-c5: 1.5-, 5-, 15-, 150-FOLD free ETPC (0.002µM).
Setting [6] is: average raw data, 2Hz, c2-c5: 1.5-, 5-, 15-, 150-FOLD free ETPC (0.002µM).

“And” between values parts separate entries of the source, which are not always exact repeats. Equal entries are not always repeated.

Turning to `CN(CCOc1ccc(NS(C)(=O)=O)cc1)CCc1ccc(NS(C)(=O)=O)cc1` [DOFETILIDE, Dofetilide], the APD90 prolongation in series [1] is listed as ~ 100%. The EAD entry in series [2] (0.003, 0.01, 0.03, and 0.3 μM, total of 4 trabeculae) is on record as “without any EAD”. Also, in series [2] (setting [3]), the “Beat Escape incidence” value stood at 0%, the EADs incidence was found to be 0% and the “Refractoriness Escape incidence” value stood at 0%. Further, in series [2] (setting [4]), the EADs incidence worked out at 0% and the “Refractoriness Escape incidence” value amounted to 0%. In series [2] (setting [5]), the AMAX was 106 mV and 107 mV; the APD90 was 274 ms and 303 ms and 385 ms and 510 ms; the “Beat Escape” value turned out to be 0; the EADs came to 0. Besides, in series [2] (setting [5]), the ERP was 0.43 and 0.47 and 0.52 and 0.59; the “Refractoriness Escape” value was determined as 0. Also, in series [2] (setting [6]), the AMAX is 102 mV and 100 mV and 101 mV; the APD90 was 216 ms and 251 ms and 296 ms and 411 ms; the EADs is reported as 0; the ERP was 0.44 and 0.49 and 0.52 and 0.56. Further, the “Refractoriness Escape” value in series [2] (setting [6]) was 0.
